Laboratory results as given in the NIST ThermoML archive (doi:10.1016/j.jct.2010.10.016).

Experiment: xn = mol fraction of the nth substance listed
Conditions: 101 kPa, Liquid; for viscosity: Capillary tube (Ostwald / Ubbelohde) method; for mass density: Pycnometric method; for speed of sound: Resonance method

CCCCOCCO [2-butoxyethan-1-ol] + C[N+](=O)[O-]
Conditions	mass density [kg/m3]	speed of sound [m/s]	viscosity [mPa·s]
293.15 K, x2 = 0	901.19	1323.9	3.239
293.15 K, x2 = 0.05	905.83	–	–
293.15 K, x2 = 0.0507	–	1322.4	–
293.15 K, x2 = 0.0557	–	–	3.019
293.15 K, x2 = 0.0999	910.77	–	–
293.15 K, x2 = 0.1001	–	1321.8	–
293.15 K, x2 = 0.106	–	–	2.815
293.15 K, x2 = 0.1974	–	–	2.451
293.15 K, x2 = 0.2	921.75	–	–
293.15 K, x2 = 0.2003	–	1318.8	–
293.15 K, x2 = 0.3	934.29	–	–
293.15 K, x2 = 0.3003	–	1316.1	–
293.15 K, x2 = 0.3083	–	–	2.031
293.15 K, x2 = 0.4	948.84	–	–
293.15 K, x2 = 0.4005	–	1313.7	–
293.15 K, x2 = 0.4014	–	–	1.716
293.15 K, x2 = 0.4487	–	–	1.571
293.15 K, x2 = 0.4997	–	–	1.432
293.15 K, x2 = 0.5	966.21	–	–
293.15 K, x2 = 0.5002	–	1312	–
293.15 K, x2 = 0.5492	–	–	1.307
293.15 K, x2 = 0.5947	–	–	1.203
293.15 K, x2 = 0.6	987.24	1311.8	–
293.15 K, x2 = 0.699	–	–	0.996
293.15 K, x2 = 0.7	1013.09	1313.7	–
293.15 K, x2 = 0.7999	–	1318.2	–
293.15 K, x2 = 0.8002	1045.18	–	–
293.15 K, x2 = 0.8012	–	–	0.838
293.15 K, x2 = 0.8981	–	–	0.72
293.15 K, x2 = 0.8999	1085.39	1326.4	–
293.15 K, x2 = 0.9475	–	–	0.679
293.15 K, x2 = 0.95	–	1332.4	–
293.15 K, x2 = 0.9503	1109.89	–	–
298.15 K, x2 = 0	896.29	1306.8	–
298.15 K, x2 = 0.05	900.85	–	–
298.15 K, x2 = 0.0507	–	1305.6	–
298.15 K, x2 = 0.0999	905.68	–	–
298.15 K, x2 = 0.1001	–	1304.5	–
298.15 K, x2 = 0.2	916.48	–	–
298.15 K, x2 = 0.2003	–	1302.2	–
298.15 K, x2 = 0.3	928.9	–	–
298.15 K, x2 = 0.3003	–	1299.6	–
298.15 K, x2 = 0.4	943.34	–	–
298.15 K, x2 = 0.4005	–	1297.2	–
298.15 K, x2 = 0.5	960.53	–	–
298.15 K, x2 = 0.5002	–	1295.5	–
298.15 K, x2 = 0.6	981.35	1295.2	–
298.15 K, x2 = 0.7	1006.9	1296.8	–
298.15 K, x2 = 0.7999	–	1300.9	–
298.15 K, x2 = 0.8002	1038.68	–	–
298.15 K, x2 = 0.8999	1078.61	1308.5	–
298.15 K, x2 = 0.95	–	1313.8	–
298.15 K, x2 = 0.9503	1103.01	–	–
298.45 K, x2 = 0	–	–	2.825
298.45 K, x2 = 0.0506	–	–	2.654
298.45 K, x2 = 0.1012	–	–	2.483
298.45 K, x2 = 0.2015	–	–	2.165
298.45 K, x2 = 0.2997	–	–	1.873
298.45 K, x2 = 0.4047	–	–	1.581
298.45 K, x2 = 0.4498	–	–	1.464
298.45 K, x2 = 0.5008	–	–	1.339
298.45 K, x2 = 0.5481	–	–	1.234
298.45 K, x2 = 0.5976	–	–	1.131
298.45 K, x2 = 0.6984	–	–	0.943
298.45 K, x2 = 0.7981	–	–	0.8
298.45 K, x2 = 0.8986	–	–	0.689
298.45 K, x2 = 0.9394	–	–	0.655
303.15 K, x2 = 0	892.35	–	2.449
303.15 K, x2 = 0.05	896.7	–	–
303.15 K, x2 = 0.0522	–	–	2.307
303.15 K, x2 = 0.0999	901.4	–	–
303.15 K, x2 = 0.1004	–	–	2.171
303.15 K, x2 = 0.2	911.94	–	–
303.15 K, x2 = 0.2155	–	–	1.85
303.15 K, x2 = 0.299	–	–	1.635
303.15 K, x2 = 0.3	924.13	–	–
303.15 K, x2 = 0.3996	–	–	1.399
303.15 K, x2 = 0.4495	–	–	1.292
303.15 K, x2 = 0.5002	–	–	1.191
303.15 K, x2 = 0.5482	–	–	1.102
303.15 K, x2 = 0.5993	–	–	1.01
303.15 K, x2 = 0.6998	–	–	0.858
303.15 K, x2 = 0.7994	–	–	0.738
303.15 K, x2 = 0.9005	–	–	0.648
303.15 K, x2 = 0.9436	–	–	0.619
